Results from patent publication US20090209548A1, “FORMULATION FOR STIMULATING HAIR GROWTH” (Pfizer Inc, priority 2004, published 2009).

Key:
[1] = In-vitro human cadaver skin permeation, Franz diffusion cell; format: in vitro ADME; settings: for Mean Percentage of Radioactivity Recovered at 24 Hours, Dermis / Mean Percentage of Radioactivity Recovered at 24 Hours, Epidermis / Mean Percentage of Radioactivity Recovered at 24 Hours, Receptor / Mean Percentage of Radioactivity Recovered at 24 Hours, Surface / Mean Percentage of Radioactivity Recovered at 24 Hours, Total: Compound 0.96% w/v
Description: Experimentally, the flux can be determined by measuring the amount of drug permeation into the receptor compartment of a Franz cell over time. The cumulative drug permeated per cm^2 is than plotted against time and the steady state permeation rate (flux, J) is calculated from the slope of the linear portion of the curve according to Fick's 1st law of diffusion.
In Examples 2-5 infra, the cumulative amount of Compound permeated through the skin as amount per surface area (μg/cm^2) was plotted against time (hours). Flux (μg/cm^2/hr) was determined by calculating the slope of the linear portion of the permeation profile. Drawing III depicts such a calculation. Typical variance in measured flux of 10 replicate samples is about 30-50%. However, if the formulation provides low flux of the Compound, indicating poor permeation through the skin, the variance could be much higher than the typical 30-50%.
This methodology utilizes a device known as the Franz Diffusion Cell. A typical device is depicted in Drawing II. The test is carried out using the following general methodology. A sample of human cadaver skin is inserted in to the area labeled as skin. The skin should be oriented so that the stratum corneum is facing the Donor Compartment and the dermis is facing the Receptor Compartment. The Receptor Compartment will be filled with a predefined solution (based on solubility of test agent). A dose of test agent, in a defined volume, is inserted into the Donor Compartment so that it may come in contact with the skin sample and potentially diffuse thru the skin into the Receptor Compartment. Samples of solution are then withdrawn from Receptor Compartment at defined time points and the concentration of test agent is determined. The amount of test agent permeated per cm^2 of skin is plotted versus time and the flux of the test agent is calculated as described above. The reader's attention is directed to Example 2, which provides a more detailed discussion of this test.
As with any testing method, the results can vary depending upon how the test is carried out. […] Thus, as used in this application including the claims, any flux determination should be carried by controlling the following parameters: • 1) Apparatus—The apparatus should be a Franz Diffusion Cell. Each cell should have a cell volume of 5.4 to 5.5 ml. Ten (10) cells should be utilized per formulation (i.e. both the test formulation and the reference formulation). As is standard in the field, the results are reported as the mean. • 2) Skin—Skin samples used for both the test formulation and the reference formulation should be human cadaver skin obtained from a single donor, who is […], between the ages of 50 and 75 and is obtained from the subjects back. […] The surface area of the skin samples should be 0.635 cm^2 (internal diameter of opening of 9 mm). The donor compartment should be maintained at room temperature (see Table A for specifics). • 3) Testing—Testing should be carried out for 24 hours. Sample should be withdrawn at the initiation of testing, and 2, 4, 12, 16, and 24 hours after initiation of testing. The sample volume should be 0.5 ml. The Compound should be present at identical concentrations in both the test formulation and the reference formulation (w/v for liquids and w/w for semi-solids). This concentration should be equal to that used in the final dosage form (i.e., what is being developed for eventual human application). A dose volume of 10 μl/0.635 cm^2 should be used. • 4) Receptor Solution—0.1% (w/v) Brij-98 in Dulbecco's phosphate buffered saline, pit 6.9 (KH2PO4 14.7 mM and Na2HPO4 80.9 mM). • 5) Barrier Integrity—The barrier integrity of human cadaver donor skin is assessed to ensure that changes in flux are attributed to the formulation versus a faulty skin barrier (e.g., cut, scrape, lesion, etc). […] The receptor fluid is assayed for these compounds. […]

[2] = tested on: hair growth cycle; settings: animal studies; topical; co-pending application 60/544,116; cited from earlier work
[3] = Table 2, vehicle 63.5:20:8:7.5% w/w EtOH/PG/CPE-215/Water
[4] = Table 2, vehicle 70:30% w/w EtOH/PG
[5] = Table 3, vehicle 60:20:20% w/w EtOH/PG/IPM
[6] = Table 3, vehicle 63.5:20:8:7.5% w/w EtOH/PG/CPE-215/Water
[7] = Table 4, vehicle 60:20:20% w/w EtOH/PG/IPM, skin 1.03-1.19 mm
[8] = Table 4, vehicle 70:20:10% w/w EtOH/PG/IPM, skin 1.03-1.19 mm

Cn1nc(O[C@@H]2c3cc(S(=O)(=O)c4cccc(O)c4)ccc3OC(C)(C)[C@@]2(C)O)ccc1=O [Compound, 6-[[(3S,4R)-3,4-dihydro-3-hydroxy-6-[(3-hydroxyphenyl)sulfonyl]-2,2,3-trimethyl-2H-1-benzopyran-4-yl]oxy]-2-methyl-3(2H)-pyridazinone]
Flux ([1]; Example 3, Compound 0.96% w/v in ethanol:propylene glycol:Cyclopentadecanolide:Water (63.5:20:8:7.5% w/w/w/w), skin 0.71-0.96 mm and 0.90-1.04 mm): 0.053±0.003 μg/cm^2/hr | Flux ([1]; Example 3, Compound 0.96% w/v in reference formulation (70% ethanol:30% propylene glycol w/w), skin 0.71-0.96 mm and 0.90-1.04 mm): 0.004±0.006 μg/cm^2/hr | Flux ([1]; Example 4, carrier ethanol:propylene glycol:Cyclopentadecanolide:Water (63.5:20:8:7.5% w/w/w/w), skin 0.71-0.96 mm and 0.90-1.04 mm): 0.022±0.007 μg/cm^2/hr | Flux ([1]; Example 4, carrier ethanol:propylene glycol:IPM (60:20:20% w/w/w), skin 0.71-0.96 mm and 0.90-1.04 mm): 0.017±0.008 μg/cm^2/hr | Flux ([1]; Example 5, carrier ethanol:propylene glycol:IPM (60:20:20% w/w/w), skin 1.03-1.19 mm): 0.011±0.003 μg/cm^2/hr | Flux ([1]; Example 5, carrier ethanol:propylene glycol:IPM (70:20:10% w/w/w), skin 1.03-1.19 mm): 0.007±0.003 μg/cm^2/hr | Flux ([1]; Example 6, Compound 1.86% w/v, carrier EtOH/PG/DMI (dimethyl isosorbide) (60:30:10% w/w)): 0.036±0.0336 μg/cm^2/hr | Flux ([1]; Example 6, Compound 1.86% w/v, carrier EtOH/PG/Miglyol 840 (50:30:20% w/w/w)): 0.11±0.007 μg/cm^2/hr | Flux ([1]; Example 6, Compound 1.86% w/v, carrier ethanol:propylene glycol:IPM (50:30:20% w/w/w)): 191±0.026 μg/cm^2/hr | Skin permeation as compared with the reference formulation ([1]; FIG. 4, carrier comprising a penetration enhancer (Cyclopentadecanolide) vs reference formulation): greatly enhanced | Mean Percentage of Radioactivity Recovered at 24 Hours, Dermis [1, 3]: 0.61% | Mean Percentage of Radioactivity Recovered at 24 Hours, Epidermis [1, 3]: 8.50% | Mean Percentage of Radioactivity Recovered at 24 Hours, Receptor [1, 3]: 0.56% | Mean Percentage of Radioactivity Recovered at 24 Hours, Surface [1, 3]: 84.77% | Mean Percentage of Radioactivity Recovered at 24 Hours, Total [1, 3]: 94.43% | Mean Percentage of Radioactivity Recovered at 24 Hours, Dermis [1, 4]: 0.06% | Mean Percentage of Radioactivity Recovered at 24 Hours, Epidermis [1, 4]: 2.53% | Mean Percentage of Radioactivity Recovered at 24 Hours, Receptor [1, 4]: 0.05% | Mean Percentage of Radioactivity Recovered at 24 Hours, Surface [1, 4]: 79.30% | Mean Percentage of Radioactivity Recovered at 24 Hours, Total [1, 4]: 81.94% | Mean Percentage of Radioactivity Recovered at 24 Hours, Dermis [1, 5]: 0.78% | Mean Percentage of Radioactivity Recovered at 24 Hours, Epidermis [1, 5]: 8.04% | Mean Percentage of Radioactivity Recovered at 24 Hours, Receptor [1, 5]: 0.14% | Mean Percentage of Radioactivity Recovered at 24 Hours, Surface [1, 5]: 79.28% | Mean Percentage of Radioactivity Recovered at 24 Hours, Total [1, 5]: 88.24% | Mean Percentage of Radioactivity Recovered at 24 Hours, Dermis [1, 6]: 0.76% | Mean Percentage of Radioactivity Recovered at 24 Hours, Epidermis [1, 6]: 8.71% | Mean Percentage of Radioactivity Recovered at 24 Hours, Receptor [1, 6]: 0.16% | Mean Percentage of Radioactivity Recovered at 24 Hours, Surface [1, 6]: 79.36% | Mean Percentage of Radioactivity Recovered at 24 Hours, Total [1, 6]: 88.99% | Mean Percentage of Radioactivity Recovered at 24 Hours, Dermis [1, 7]: 1.00% | Mean Percentage of Radioactivity Recovered at 24 Hours, Epidermis [1, 7]: 12.00% | Mean Percentage of Radioactivity Recovered at 24 Hours, Receptor [1, 7]: 0.07% | Mean Percentage of Radioactivity Recovered at 24 Hours, Surface [1, 7]: 73.00% | Mean Percentage of Radioactivity Recovered at 24 Hours, Total [1, 7]: 86.1% | Mean Percentage of Radioactivity Recovered at 24 Hours, Dermis [1, 8]: 1.04% | Mean Percentage of Radioactivity Recovered at 24 Hours, Epidermis [1, 8]: 12.27% | Mean Percentage of Radioactivity Recovered at 24 Hours, Receptor [1, 8]: 0.10% | Mean Percentage of Radioactivity Recovered at 24 Hours, Surface [1, 8]: 75.24% | Mean Percentage of Radioactivity Recovered at 24 Hours, Total [1, 8]: 88.66% | Effect on the hair growth cycle [2]: alters the hair growth cycle by inducing anagen
